Here are results for 19 compounds from patent US10357493B2, “Metalloenzyme inhibitor compounds” (Selenity Therapeutics (Bermuda), Ltd., priority 2017, dated 2019).

One test has as its target HDAC6 (Homo sapiens (Human), UniProt Q9UBN7). As to the kind of experiment: HDAC6 enzymatic assay. Format: biochemical. The settings on record: read-out: Human HDAC6 IC50. On the procedure: (§1) All enzymatic reactions were conducted in duplicate at room temperature for 17 hours in a 50 μl mixture containing HDAC assay buffer (50 mM Tris-HCl, pH 7.4, 137 mM NaCl, 2.7 mM KCl, 0.05% Tween 20, 5 μg BSA), an HDAC substrate, an HDAC enzyme, and a test compound. Compound dilution was prepared ten-fold higher than the final concentration of the compounds with 10% DMSO in HDAC assay buffer and 5 μl of the dilution was added to a 50 μl reaction so that the final concentration of DMSO is 1% in all of reactions. After enzymatic reactions, 50 μl of HDAC Developer was added to each well and the plate was incubated at room temperature for an additional 20 minutes. Fluorescence intensity was measured at an excitation of 360 nm and an emission of 460 nm using a Tecan Infinite M1000 or Biotek Synergy microplate reader.
(§2) The fluorescent intensity data were analyzed using the computer software, Graphpad Prism. In the absence of the compound, the fluorescent intensity (Ft) in each data set was defined as 100% activity. In the absence of HDAC, the fluorescent intensity (Fb) in each data set was defined as 0% activity. The percent activity in the presence of each compound was calculated according to the following equation: % activity=(F−Fb)/(Ft−Fb), where F=the fluorescent intensity in the presence of the compound.
(§3) The values of % activity versus a series of compound concentrations were then plotted using non-linear regression analysis of Sigmoidal dose-response curve generated with the equation Y=B+(T−B)/1+10((Log EC50−X)×Hill Slope), where Y=percent activity, B=minimum percent activity, T=maximum percent activity, X=logarithm of compound and Hill Slope=slope factor or Hill coefficient. The IC50 value was determined by the concentration causing a half-maximal percent activity.
(§4) HDAC1 enzymatic assays contained 0.5 ng HDAC1 and 10 uM of HDAC substrate. HDAC2 enzymatic assays contained 0.5 ng HDAC2 and 10 uM of HDAC substrate. HDAC3 enzymatic assays contained 0.4 ng HDAC3/NCOR2 and 10 uM of HDAC substrate. HDAC4 enzymatic assays contained 0.02 ng HDAC4 and 2 uM of HDAC substrate. HDAC5 enzymatic assays contained 0.5 ng HDAC5 and 2 uM of HDAC substrate. HDAC6 enzymatic assays contained 2 ng HDAC6 and 10 uM of HDAC substrate. HDAC7 enzymatic assays contained 0.05 ng HDAC7 and 2 uM of HDAC substrate. HDAC8 enzymatic assays contained 5 ng HDAC8 and 2 uM of HDAC substrate. HDAC9 enzymatic assays contained 1 ng HDAC9 and 2 uM of HDAC substrate. HDAC10 enzymatic assays contained 75 ng HDAC10 and 10 uM of HDAC substrate. HDAC11 enzymatic assays contained 5 ng HDAC11 and 2 uM of HDAC substrate.

For another test, the target named is HDAC1 (Homo sapiens (Human), UniProt Q13547). As to the kind of experiment: HDAC1 enzymatic assay. Format: biochemical. The settings on record: read-out: Human HDAC1 IC50. On the procedure:
as §1, §2, §3, §4

Sequence of HDAC6 (Q9UBN7 whole entry): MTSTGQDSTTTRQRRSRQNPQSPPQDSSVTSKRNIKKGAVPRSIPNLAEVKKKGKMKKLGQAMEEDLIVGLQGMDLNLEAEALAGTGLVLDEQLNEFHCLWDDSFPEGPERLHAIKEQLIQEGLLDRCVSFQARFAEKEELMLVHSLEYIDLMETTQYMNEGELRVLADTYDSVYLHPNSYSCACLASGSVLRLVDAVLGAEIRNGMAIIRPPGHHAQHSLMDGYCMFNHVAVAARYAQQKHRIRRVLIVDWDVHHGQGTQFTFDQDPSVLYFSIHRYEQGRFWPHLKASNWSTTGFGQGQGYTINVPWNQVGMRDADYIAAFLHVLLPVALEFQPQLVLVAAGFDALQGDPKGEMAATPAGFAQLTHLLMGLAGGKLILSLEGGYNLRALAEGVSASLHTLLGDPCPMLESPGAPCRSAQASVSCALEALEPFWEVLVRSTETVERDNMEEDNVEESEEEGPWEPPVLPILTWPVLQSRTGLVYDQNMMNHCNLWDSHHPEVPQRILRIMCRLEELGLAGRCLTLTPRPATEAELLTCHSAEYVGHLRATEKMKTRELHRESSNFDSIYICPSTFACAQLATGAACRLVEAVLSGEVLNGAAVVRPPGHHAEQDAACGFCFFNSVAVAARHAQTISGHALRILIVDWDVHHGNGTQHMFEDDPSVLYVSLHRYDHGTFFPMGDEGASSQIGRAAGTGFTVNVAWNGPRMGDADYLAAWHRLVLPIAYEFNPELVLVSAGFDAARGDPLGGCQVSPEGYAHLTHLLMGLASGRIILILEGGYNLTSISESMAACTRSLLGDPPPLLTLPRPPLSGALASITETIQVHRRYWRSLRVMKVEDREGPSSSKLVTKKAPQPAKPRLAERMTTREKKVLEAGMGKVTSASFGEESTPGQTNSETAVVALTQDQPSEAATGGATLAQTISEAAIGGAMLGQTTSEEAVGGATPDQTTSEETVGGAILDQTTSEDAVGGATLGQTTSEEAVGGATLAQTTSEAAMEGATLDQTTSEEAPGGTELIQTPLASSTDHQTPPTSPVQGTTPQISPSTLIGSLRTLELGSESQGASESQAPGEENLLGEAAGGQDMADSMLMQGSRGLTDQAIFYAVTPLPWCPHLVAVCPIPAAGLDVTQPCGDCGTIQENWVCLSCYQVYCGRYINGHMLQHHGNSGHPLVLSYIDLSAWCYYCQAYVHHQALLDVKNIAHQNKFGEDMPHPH
Sequence of HDAC1 (Q13547 whole entry): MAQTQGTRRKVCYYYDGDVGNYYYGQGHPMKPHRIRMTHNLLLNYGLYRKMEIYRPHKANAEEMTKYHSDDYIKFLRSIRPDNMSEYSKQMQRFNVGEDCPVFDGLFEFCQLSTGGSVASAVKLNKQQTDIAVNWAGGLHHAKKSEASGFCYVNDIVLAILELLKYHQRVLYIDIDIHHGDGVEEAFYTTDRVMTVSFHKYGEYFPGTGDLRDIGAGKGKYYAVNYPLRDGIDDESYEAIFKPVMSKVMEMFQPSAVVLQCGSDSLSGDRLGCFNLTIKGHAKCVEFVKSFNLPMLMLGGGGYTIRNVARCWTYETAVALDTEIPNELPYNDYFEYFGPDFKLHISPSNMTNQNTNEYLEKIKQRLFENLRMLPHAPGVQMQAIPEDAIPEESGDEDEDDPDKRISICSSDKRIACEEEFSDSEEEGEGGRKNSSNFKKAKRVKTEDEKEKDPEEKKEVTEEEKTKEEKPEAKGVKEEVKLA

`CCS(=O)(=O)N(CC(Nc1ncc(-c2nnc(C(F)F)o2)cn1)c1ccc(OC(F)(F)F)cc1)CC(F)(F)F` (stereo not drawn) [157(+), N-(2-((5-(5-(difluoromethyl)-1,3,4-oxadiazol-2-yl)pyrimidin-2-yl)amino)-2-(4-(trifluoromethoxy)phenyl)ethyl)-N-(2,2,2-trifluoroethyl)ethanesulfonamide]: the IC50 at HDAC6 was 440 nM; at HDAC1, over 30000 nM.

For the compound `CS(=O)(=O)Nc1ccccc1C(Nc1ncc(-c2nnc(C(F)F)o2)cn1)c1ccc(F)cc1` (centres unmarked) [Example 130, N-(2-(((5-(5-(difluoromethyl)-1,3,4-oxadiazol-2-yl)pyrimidin-2-yl)amino)(4-fluorophenyl)methyl)phenyl)methanesulfonamide], the IC50 is 190 nM on HDAC6 and over 30000 nM on HDAC1.

Take `CN(CC(Nc1ncc(-c2nnc(C(F)F)o2)cn1)c1ccc(OC(F)F)cc1F)S(C)(=O)=O` (stereo not drawn) [145(+), N-(2-(4-(difluoromethoxy)-2-fluorophenyl)-2-((5-(5-(difluoromethyl)-1,3,4-oxadiazol-2-yl)pyrimidin-2-yl)amino)ethyl)-N-methylmethanesulfonamide]: the half-maximal inhibitory concentration (IC50) was 41 nM on HDAC6 and over 30000 nM at HDAC1.

As to `Fc1ccc(OC(F)(F)F)cc1C1(Nc2ncc(-c3nnc(C(F)F)o3)cn2)CC1` [Example 75, 5-(5-(difluoromethyl)-1,3,4-oxadiazol-2-yl)-N-(1-(2-fluoro-5-(trifluoromethoxy)phenyl)cyclopropyl)pyrimidin-2-amine], the IC50 at HDAC6 was 38 nM; at HDAC1, over 30000 nM.

On to `COc1cccc(C2(Nc3ncc(-c4nnc(C(F)(F)F)o4)cn3)CC2)c1` [Example 41, N-(1-(3-methoxyphenyl)cyclopropyl)-5-(5-(trifluoromethyl)-1,3,4-oxadiazol-2-yl)pyrimidin-2-amine], for which the values for the IC50 at HDAC6 and at HDAC1 were 250 nM and over 30000 nM, respectively.

Take `Fc1ccc(C(COC2CC2)Nc2ncc(-c3nnc(C(F)F)o3)cn2)c(F)c1` (single isomer, unassigned) [Example 134A, N-(2-cyclopropoxy-1-(2,4-difluorophenyl)ethyl)-5-(5-(difluoromethyl)-1,3,4-oxadiazol-2-yl)pyrimidin-2-amine]: the IC50 on HDAC6 was 220 nM; at HDAC1 it was over 30000 nM.

As to `CCS(=O)(=O)NCC(Nc1ncc(-c2nnc(C(F)F)o2)cn1)c1ccc(F)cc1F` (single isomer, unassigned) [139(+), N-(2-((5-(5-(difluoromethyl)-1,3,4-oxadiazol-2-yl)pyrimidin-2-yl)amino)-2-(2,4-difluorophenyl)ethyl)ethanesulfonamide], the IC50 on HDAC6 is 33 nM; on HDAC1, over 30000 nM.

For `CCS(=O)(=O)NCC(Nc1ncc(-c2nnc(C(F)F)o2)cn1)c1ccc(OC(F)(F)F)cc1` (stereo not drawn) [155(+), N-(2-((5-(5-(difluoromethyl)-1,3,4-oxadiazol-2-yl)pyrimidin-2-yl)amino)-2-(4-(trifluoromethoxy)phenyl)ethyl)ethanesulfonamide], the IC50 is 50 nM on HDAC6 and over 30000 nM on HDAC1.

For the compound `CN(CC(Nc1ncc(-c2nnc(C(F)F)o2)cn1)c1ccc(F)cc1)C(=O)C1CC1` (single isomer, unassigned) [169(−), N-(2-((5-(5-(difluoromethyl)-1,3,4-oxadiazol-2-yl)pyrimidin-2-yl)amino)-2-(4-fluorophenyl)ethyl)-N-methylcyclopropanecarboxamide], the IC50 at HDAC6 was 1100 nM; at HDAC1, over 30000 nM.

Regarding `CS(=O)(=O)NCC(Nc1ncc(-c2nnc(C(F)F)o2)cn1)c1ccc(OC(F)F)cc1` (single isomer, unassigned) [115(−), N-(2-(4-(difluoromethoxy)phenyl)-2-((5-(5-(difluoromethyl)-1,3,4-oxadiazol-2-yl)pyrimidin-2-yl)amino)ethyl)methanesulfonamide], the IC50 at HDAC6 is 370 nM; at HDAC1, over 30000 nM.

Consider `Fc1ccc(C(Cn2cnc(C(F)(F)F)c2)Nc2ncc(-c3nnc(C(F)F)o3)cn2)cc1` (single isomer, unassigned) [175(−), 5-(5-(difluoromethyl)-1,3,4-oxadiazol-2-yl)-N-(1-(4-fluorophenyl)-2-(4-(trifluoromethyl)-1H-imidazol-1-yl)ethyl)pyrimidin-2-amine], for which the half-inhibitory concentration (IC50) on HDAC6 was 1500 nM; at HDAC1 it was over 30000 nM.

Regarding `FC(F)Oc1ccc(C2(Nc3ncc(-c4nnc(C(F)F)o4)cn3)CC2)cc1` [Example 32, N-(1-(4-(difluoromethoxy)phenyl)cyclopropyl)-5-(5-(difluoromethyl)-1,3,4-oxadiazol-2-yl)pyrimidin-2-amine], the results for the concentration for half-maximal inhibition (IC50) at HDAC6 and on HDAC1 were 59 nM and over 30000 nM, respectively.

As for `Fc1cc(OCC(F)(F)F)ccc1C1(Nc2ncc(-c3nnc(C(F)F)o3)cn2)CC1` [Example 84, 5-(5-(difluoromethyl)-1,3,4-oxadiazol-2-yl)-N-(1-(2-fluoro-4-(2,2,2-trifluoroethoxy)phenyl)cyclopropyl)pyrimidin-2-amine], the IC50 is 77 nM at HDAC6 and over 30000 nM on HDAC1.

On to `CS(=O)(=O)N(CC(Nc1ncc(-c2nnc(C(F)F)o2)cn1)c1ccc(OC(F)(F)F)cc1)CC(F)(F)F` (stereo not drawn) [154(+), N-(2-((5-(5-(difluoromethyl)-1,3,4-oxadiazol-2-yl)pyrimidin-2-yl)amino)-2-(4-(trifluoromethoxy)phenyl)ethyl)-N-(2,2,2-trifluoroethyl)methanesulfonamide], for which the IC50 was 260 nM on HDAC6 and over 30000 nM at HDAC1.

On to `Fc1ccc(C(COCC(F)(F)F)Nc2ncc(-c3nnc(C(F)F)o3)cn2)c(F)c1` (single isomer, unassigned) [163(−), 5-(5-(difluoromethyl)-1,3,4-oxadiazol-2-yl)-N-(1-(2,4-difluorophenyl)-2-(2,2,2-trifluoroethoxy)ethyl)pyrimidin-2-amine], for which the half-inhibitory concentration (IC50) at HDAC6 is 410 nM; on HDAC1, over 30000 nM.

Regarding `CC(Nc1ncc(-c2nnc(C(F)(F)F)o2)cn1)c1ccccc1` (centres unmarked) [Example 2, N-(1-phenylethyl)-5-(5-(trifluoromethyl)-1,3,4-oxadiazol-2-yl)pyrimidin-2-amine], the IC50 on HDAC6 was 390 nM; on HDAC1, over 30000 nM.

For the compound `CCS(=O)(=O)N(CC(Nc1ncc(-c2nnc(C(F)F)o2)cn1)c1ccc(F)cc1F)CC(F)(F)F` (stereo not drawn) [141(+), N-(2-((5-(5-(difluoromethyl)-1,3,4-oxadiazol-2-yl)pyrimidin-2-yl)amino)-2-(2,4-difluorophenyl)ethyl)-N-(2,2,2-trifluoroethyl)ethanesulfonamide], the IC50 at HDAC6 is 130 nM; at HDAC1 it was over 30000 nM.

Take `Fc1ccc(C2(Nc3ncc(-c4nnc(C(F)F)o4)cn3)CCN(c3ccccc3)CC2)cc1` [Example 17, 5-(5-(difluoromethyl)-1,3,4-oxadiazol-2-yl)-N-(4-(4-fluorophenyl)-1-phenylpiperidin-4-yl)pyrimidin-2-amine]: the IC50 is 160 nM at HDAC6 and over 30000 nM at HDAC1.

Consider `CC(=O)NCC(Nc1ncc(-c2nnc(C(F)F)o2)cn1)c1ccc(F)cc1` (single isomer, unassigned) [78(+), N-(2-((5-(5-(difluoromethyl)-1,3,4-oxadiazol-2-yl)pyrimidin-2-yl)amino)-2-(4-fluorophenyl)ethyl)acetamide], for which the IC50 was 48 nM on HDAC6 and over 30000 nM on HDAC1.
